Earlier results as cited in US20110034442A1, “Use and Methods of Use for an Antagonist of the Serotin3 Receptor (5-HT3) and a Selective Modulator of Chloride Channels for the Treatment of Addiction to or Dependence on Medicines/Drugs or Nervous System Disorders” (priority 2007, published 2011).
Structures can show the parent of a compound that is named as a salt. Where two headings read alike, the source gives them in different places.

Legend:
[1] = in contrast to naltrexone
[2] = test system: K+-evoked [3H]ACh efflux; details: slices from rat entorhinal cortex preloaded with [3H]choline
[3] = flumazenil 10 mg/kg, ondansetron 0.3 mg/kg, R(−)-alpha-metylhistamine 10 mg/kg
[4] = test system: alcohol-dependent subjects; details: 15 alcohol-dependent subjects
[5] = test system: male rats
[6] = pH 7.4
[7] = test system: rat; details: elevated plus maze
[8] = test system: alpha(4)-subunit gene expression; details: ethanol withdrawal
[9] = test system: rats; details: rats receiving combined cocaine-diazepam compared to cocaine alone or diazepam alone
[10] = test system: acetylcholine release; details: GABA(A) receptor antagonist given with ondansetron; rat frontal cortex
[11] = in vivo
[12] = not given; remark: listed apart in the source
[13] = in vivo; remark: listed apart in the source
[14] = test system: cocaine-dependent men and women
[15] = test system: rats
[16] = test system: adolescents who had alcohol dependence; details: 4 microg/kg b.i.d.
[17] = test system: healthy human volunteers; details: pretreatment 0.15 mg/kg i.v.; oral D-amphetamine 0.5 mg/kg; subjects with robust responses
[18] = test system: mice; details: 0.1 and 1 mg/kg PO
[19] = pre-treatment 12 mg orally over 24 h; amphetamine 15 mg orally
[20] = test system: mice
[21] = test system: alcohol dependent subjects; details: 4 microg/kg b.i.d.
[22] = test system: early-onset alcoholism; details: 16 microg/kg twice daily; early-onset compared with late-onset alcoholism
[23] = not given; remark: listed apart in the source
[24] = test system: Wistar rats; details: 0.1, 0.5, 1, 2 mg/kg intra-peritoneally, 30 minutes prior to d-amphetamine
[25] = test system: healthy males; details: pretreatment, nine healthy males
[26] = in vivo; remark: listed apart in the source
[27] = biological target: T1, 5-HT3 receptors (Homo sapiens, UniProt P46098); details: in vivo
T1 sequence (P46098 24-478): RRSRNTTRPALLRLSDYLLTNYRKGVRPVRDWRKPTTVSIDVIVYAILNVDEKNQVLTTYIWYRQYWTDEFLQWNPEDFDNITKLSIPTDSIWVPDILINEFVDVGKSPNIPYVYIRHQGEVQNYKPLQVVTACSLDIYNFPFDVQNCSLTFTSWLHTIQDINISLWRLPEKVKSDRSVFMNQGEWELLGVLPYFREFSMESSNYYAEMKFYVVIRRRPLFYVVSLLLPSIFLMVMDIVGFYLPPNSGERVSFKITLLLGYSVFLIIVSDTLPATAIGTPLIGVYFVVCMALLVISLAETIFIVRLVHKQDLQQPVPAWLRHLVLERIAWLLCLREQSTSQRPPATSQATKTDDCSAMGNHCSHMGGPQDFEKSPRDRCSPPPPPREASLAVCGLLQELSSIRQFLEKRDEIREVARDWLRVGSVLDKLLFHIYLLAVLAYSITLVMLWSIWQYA

C=C1CC[C@@]2(O)[C@H]3Cc4ccc(O)c5c4[C@@]2(CCN3CC2CC2)[C@H]1O5 [nalmefene, 17(cyclopropylmethyl)-4,5-alpha-epoxy-6-methylenemorphinan-3,14-diol,hydrochloride salt]
hepatocellular injury [1]: does not cause hepatocellular injury

CN1[C@@H]2CC[C@H]1C[C@@H](OC(=O)c1cc(Cl)cc(Cl)c1)C2 [MDL 72222]
K+-evoked [3H]ACh efflux [2]: concentration-dependent increase

C[C@@H](N)Cc1c[nH]cn1 [R(−)-alpha-metylhistamine]
attenuation of scopolamine-induced deficits [3]: neither flumazenil 10 mg/kg, ondansetron 0.3 mg/kg nor R(−)-alpha-metylhistamine 10 mg/kg attenuated

CCOC(=O)c1ncn2c1CN(C)C(=O)c1cc(F)ccc1-2 [flumazenil, ethyl 8-fluoro-5,6-dihydro-5-methyl-6-oxo-4H-imidazo[1,5-a](1,4)benzodiazepine-3-carboxylate]
attenuation of scopolamine-induced deficits [3]: neither flumazenil 10 mg/kg, ondansetron 0.3 mg/kg nor R(−)-alpha-metylhistamine 10 mg/kg attenuated | anxiolytic or anxiogenic effect [4]: neither anxiolytic nor anxiogenic | changes of the self-stimulation [5]: did not cause any substantial changes | octanol:buffer partition coefficient [6]: 14 to 1 | solubility in acidic aqueous solutions (acidic aqueous solutions): slightly soluble | solubility in water (water): insoluble | anxiolytic effects [7]: did not produce any anxiolytic effects | decrease in open arm entries produced by withdrawal from ethanol treatment [7]: blocked these changes | up-regulation of alpha(4)-subunit gene expression [8]: selectively prevented the up-regulation | seizures and incidence of death [9]: unmask seizures and increase the incidence of death | K+-evoked [3H]ACh efflux [2]: enhanced | peak increase of acetylcholine release over basal levels [10]: 259%

CN1C2CCCC1CC(NC(=O)c1nn(C)c3ccccc13)C2 (centres unmarked) [granisetron]
K+-evoked [3H]ACh efflux [2]: concentration-dependent increase

O=Cc1c(N2CCN(Cc3ccc4c(c3)OCO4)CC2)[nH]c2ccccc12 [VA21B7, 3-[2-(4′-piperonylpiperazinyl)indolyl]carboxaldehyde]
release of suppressed behavior [11]: able to release suppressed behavior

Cc1nccn1CC1CCc2c(c3ccccc3n2C)C1=O (racemic) [ondansetron, (±)1,2,3,9-tetrahydro-9-methyl-3-[(2-methyl-1H-imidazol-1-yl)methyl]-4H-carbazol-4-one, monohydrochlororide, dehydrate]
expression of sensitization and tolerance ([12]; administered during withdrawal from intermittent and continuous cocaine): blockade of the expression of sensitization and tolerance | development of behavioral tolerance ([12]; continuous cocaine group): attenuated the development of behavioral tolerance | development of sensitization ([12]; daily injections with cocaine, inverted U-shape dose-response curve): significantly blocked the development of sensitization | subsequent behavioral response to cocaine ([12]; daily injections, saline control subjects): no consistent or significant effect | attenuation of scopolamine-induced deficits [3]: neither flumazenil 10 mg/kg, ondansetron 0.3 mg/kg nor R(−)-alpha-metylhistamine 10 mg/kg attenuated | increased behavioral suppression following withdrawal from ethanol, nicotine and cocaine [13]: highly effective inhibitor | tolerability, adverse events ([14]; 0.25 mg, 1.0 mg, or 4.0 mg twice daily, 10 weeks): well tolerated, causing no serious adverse events | dropout rate among all treatment groups ([14]; 4.0 mg twice daily): lowest dropout rate | percentage of participants with a cocaine-free week compared with the placebo group ([14]; 4.0 mg twice daily, p=0.02): greater rate of improvement | anxiolytic action during withdrawal from chronic chlordiazepoxide ([15]; rats (Rezazadeh 1992)): mixed results | efficacy in reversing various aspects of benzodiazepine withdrawal ([15]; rats, three tests, flumazenil given during chronic chlordiazepoxide (Prather 1993)): Inconsistent results | craving, Adolescent Obsessive-Compulsive Drinking Scale [16]: reduction | drinks per day ([16]; 8 weeks): significant decrease | safety and tolerability ([16]; oral, 8 weeks, 12 adolescents): safe and well tolerated | changes of the self-stimulation [5]: did not cause any substantial changes | activation-euphoria responses to D-amphetamine [17]: attenuated responses | solubility in water and normal saline (racemic form, water and normal saline): soluble | number of shocks taken [18]: increased | amphetamine-induced decrease in self-ratings of hunger [19]: significantly attenuated | anxiolytic action compared to naive mice ([20]; 0.01, 0.1 and 1 mg/kg i.p.): significant anxiolytic action | potency compared to diazepam ([20]; diazepam 1 mg/kg): less potent | overall craving ([21]; early-onset alcoholics): reduced overall craving significantly | overall craving ([21]; late-onset alcoholics, compared with placebo): not late-onset alcoholics | alleviation of overall mood disturbance, fatigue, vigor, confusion/bewilderment and depression [22]: greater therapeutic efficacy | cocaine intake the following day ([23]; administered 30 min before the cocaine session): no effect | cocaine self-administration the following day ([23]; given 3.5 h after intravenous cocaine self-administration): attenuate self-administration the following day | cocaine self-administration and sensitization ([23]; given after each second cocaine regimen dose or during the second withdrawal period): inhibited | average stereotypic score [24]: decreased | mean number of head dippings and crossings in the hole board test [24]: significantly decreased | K+-evoked [3H]ACh efflux [2]: concentration-dependent increase | effects of amphetamine on blood pressure or psychomotor performance tests [25]: not on blood pressure or psychomotor performance tests | effects of amphetamine on hunger and subjective state [25]: attenuated | ensuing facilitation of self-stimulation after high-dose nicotine [26]: not the ensuing facilitation | initial depression of self-stimulation by high-dose nicotine [26]: reduced the initial depression | self-stimulation [26]: no effect | antagonism of the effects of amphetamine [27]: did not antagonize the effects of amphetamine
